Experimental findings from US6979686B1, “Substituted pyrazoles as p38 kinase inhibitors” (Pharmacia Corporation, priority 2001, dated 2005) are described below.

Each structure is given as a SMILES string. Where only a bound is given, the exact number is not on record here.

The target of one assay is T1, human p38 kinase alpha (Homo sapiens, UniProt Q16539).
T1 construct: GST (N, cleaved yes); made in house; host or cells: E. coli DH10B
T1 sequence (Q16539 whole entry): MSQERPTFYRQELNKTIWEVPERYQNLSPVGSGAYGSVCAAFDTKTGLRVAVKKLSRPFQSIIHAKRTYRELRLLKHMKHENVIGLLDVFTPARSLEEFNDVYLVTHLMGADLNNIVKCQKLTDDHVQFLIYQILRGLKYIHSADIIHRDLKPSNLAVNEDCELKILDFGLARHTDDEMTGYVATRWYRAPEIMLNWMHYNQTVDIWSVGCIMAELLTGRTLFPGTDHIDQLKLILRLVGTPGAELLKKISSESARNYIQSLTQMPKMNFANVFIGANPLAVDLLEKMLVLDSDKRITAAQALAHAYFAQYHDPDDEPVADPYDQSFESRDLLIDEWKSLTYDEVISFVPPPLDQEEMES
Put plainly: p38 kinase in vitro assay, phosphorylation of biotinylated PHAS-I with 32P-ATP. It counts as biochemical. The following applies: @ 1.0 uM. How it is done: The coding region of the human p38a cDNA was obtained by PCR-amplification from RNA isolated from the human monocyte cell line THP.1. […] Random primer, dNTP's and Superscript™ reagents were all purchased from Life-Technologies, Gaithersburg, Mass. The reaction was incubated at 42° C. for 1 hour. Amplification of p38 cDNA was performed by aliquoting 5 μl of the reverse transcriptase reaction into a 100 μl PCR reaction containing the following: 80 μl dH2O, 2 μl 50 mM DNTP's, 1 μl each of forward and reverse primers (50 pmol/μl), 10 μl of 10×buffer and 1 μl Expand™ polymerase (Boehringer Mannheim). The PCR primers incorporated BamHI sites onto the 5′ and 3′ end of the amplified fragment, and were purchased from Genosys. […] The PCR amplification was carried out in a DNA Thermal Cycler (Perkin Elmer) by repeating 30 cycles of 94° C. for 1 minute, 60° C. for 1 minute and 68° C. for 2 minutes. After amplification, excess primers and unincorporated dNTP's were removed from the amplified fragment with a Wizard™ PCR prep (Promega) and digested with BamHI (New England Biolabs). The BamHI digested fragment was ligated into BamHI digested PGEX 2T plasmid DNA (PharmaciaBiotech) using T-4 DNA ligase (New England Biolabs) as described by T. Maniatis, Molecular Cloning: A Laboratory Manual, 2nd ed. […] The ligation reaction was transformed into chemically competent E. coli DH10B cells purchased from Life-Technologies following the manufacturer's instructions. Plasmid DNA was isolated from the resulting bacterial colonies using a Promega Wizard™ miniprep kit.
Expression of Human p38a:
Overnight cultures were grown in-Luria Broth (LB) containing […] ampicillin. The next day, 500 ml of fresh LB was inoculated with 10 ml of overnight culture, and grown in a 2 liter flask at 37° C. with constant shaking until the culture reached an absorbance of 0.8 at 600 nm. Expression of the fusion protein was induced by addition of isopropyl b-D-thiogalactosidse (IPTG) to a final concentration of 0.05 mM. The cultures were shaken for three hours at room temperature, and the cells were harvested by centrifugation. The cell pellets were stored frozen until protein purification.
Purification of p38 Kinase-α:
All chemicals were from Sigma Chemical Co. unless noted. Twenty grams of E. coli cell pellet collected from five 1 L shake flask fermentations was resuspended in a volume of PBS (140 mM NaCl, 2.7 mM KCl, 10 mM Na2HPO4, 1.8 mM KH2PO4, pH 7.3) up to 200 ml. The cell suspension was adjusted to 5 mM DTT with 2 M DTT and then split equally into five 50 ml Falcon conical tubes. The cells were sonnicated (Ultrasonics model W375) with a 1 cm probe for 3×1 minutes (pulsed) on ice. Lysed cell material was removed by centrifugation (12,000×g, 15 minutes) and the clarified supernatant applied to glutathione-sepharose resin (Pharmacia).
Glutathione-sepharose Affinity Chromatography:
The resin was collected by centrifugation (600×g, 5 min) and washed with 2×150 ml PBS/1% Triton X-100, followed by 4×40 ml PBS. To cleave the p38 kinase from the GST-p38 fusion protein, the glutathione-sepharose resin was resuspended in 6 ml PBS containing 250 units thrombin protease (Pharmacia, specific activity>7500 units/mg) and mixed gently for 4 hours at room temperature. The glutathione-sepharose resin was removed by centrifugation (600×g, 5 min) and washed 2×6 ml with PBS. The PBS wash fractions and digest supernatant containing p38 kinase protein were pooled and adjusted to 0.3 mM PMSF.
Mono O Anion Exchange Chromatography:
The thrombin-cleaved p38 kinase was further purified by FPLC-anion exchange chromatography.
Turning to `O=C(NCCCc1[nH]nc(-c2ccc(F)cc2)c1-c1ccncc1)N1CCCC1` [Example B-1209], the “P38 alpha kinase % inhib @ conc.” value turned out to be 86.0% @.

For the compound `O=C(NCCCc1[nH]nc(-c2ccc(F)cc2)c1-c1ccncc1)c1ccc(F)c(F)c1F` [Example B-1174], the “P38 alpha kinase % inhib @ conc. (uM)” value worked out at 80.0% @.

As for `CC(C)S(=O)(=O)NCCc1[nH]nc(-c2ccc(F)cc2)c1-c1ccncc1` [Example B-1015], the “P38 alpha kinase % inhib @ conc. (uM)” value came out at 77.0% @.

As for `CCCCOc1ccc(NC(=O)NCCc2[nH]nc(-c3ccc(F)cc3)c2-c2ccncc2)cc1` [Example B-0944], the “P38 alpha kinase % inhib @ conc. (uM)” value is 45.0% @.

`COc1ccc(S(=O)(=O)NCCCc2[nH]nc(-c3ccc(F)cc3)c2-c2ccncc2)cc1OC` [Example B-1205]: the “P38 alpha kinase % inhib @ conc.” value worked out at 74.0% @.

With `CSc1cccc(NC(=O)NCCc2[nH]nc(-c3ccc(F)cc3)c2-c2ccncc2)c1` [Example B-0933], the “P38 alpha kinase % inhib @ conc. (uM)” value was found to be 47.0% @.

The same assay, now with this note: @ 10.0 uM.
For the compound `Cc1c(-c2ccncc2)c(-c2ccc(F)cc2)nn1CC(=O)Nc1ccccc1C(=O)NC1CCCCC1` [Example B-2451], the “P38 alpha kinase IC50, uM or % inhib @ conc. (uM): % inhib” value came out at 87.0% @.

On to `CCOC(=O)N1CCC(NC(=O)Cn2nc(-c3ccc(F)cc3)c(-c3ccncc3)c2C)CC1` [Example B-2329], for which the “P38 alpha kinase % inhib @ conc.” value is reported as 72.0% @.

Regarding `Cc1c(-c2ccncc2)c(-c2ccc(F)cc2)nn1CC(=O)N1CCOCC1` [Example B-2366], the “P38 alpha kinase % inhib @ conc.” value is given as 70.0% @.

As for `Cc1c(-c2ccncc2)c(-c2ccc(F)cc2)nn1CC(=O)NC(C)CCc1ccccc1` (stereo not drawn) [Example B-2340], the “P38 alpha kinase % inhib @ conc.” value was 35.0% @.

On to `Cc1c(-c2ccncc2)c(-c2ccc(F)cc2)nn1CC(=O)NC(Cc1ccccc1)c1ccccc1` (stereo not drawn) [Example B-2320], for which the “P38 alpha kinase % inhib @ conc.” value is on record as 44.0% @.

As to `Cc1c(-c2ccncc2)c(-c2ccc(F)cc2)nn1CC(=O)NC(C)c1cccc2ccccc12` (stereo not drawn) [Example B-2331], the “P38 alpha kinase % inhib @ conc.” value worked out at 74.0% @.

Still in this assay, the particulars now being: @ 100.0 uM.
With `Cc1c(-c2ccncc2)c(-c2ccc(F)cc2)nn1CC(=O)N(C)Cc1ccccc1` [Example B-2370], the “P38 alpha kinase % inhib @ conc.” value came to 73% @.

The same assay, now with this note: activated human p38 kinase alpha, PHAS-I substrate, 50 μM unlabeled ATP; read-out: p38 kinase IC50.
As usually defined, the IC50 is the concentration needed to halve the response being measured. Take `CCOC(=O)CCc1[nH]nc(-c2ccc(Cl)cc2)c1-c1ccncc1` [Example A-53]: the IC50 was 900 nM.

The assay is the same for the next values; noted with them: in vitro P38-alpha kinase inhibition; read-out: P38 alpha kinase IC50.
In the case of `O=S(=O)(NCCc1[nH]nc(-c2ccc(F)cc2)c1-c1ccncc1)c1ccc(S(=O)(=O)c2ccccc2)s1` [Example B-1116], the IC50 is 410 nM.

Turning to `COc1ccc(S(=O)(=O)NC(Cc2ccccc2)c2[nH]nc(-c3ccc(F)cc3)c2-c2ccncc2)cc1` (stereo not drawn) [Example B-0719], the IC50 was 3400 nM.

For `Cc1noc(C)c1S(=O)(=O)NCCc1[nH]nc(-c2ccc(F)cc2)c1-c1ccncc1` [Example B-1104], the IC50 amounted to 120 nM.

As for `O=C(NCCc1[nH]nc(-c2ccc(F)cc2)c1-c1ccncc1)c1cccc(C(F)(F)F)c1` [Example B-1123], the IC50 stood at 2930 nM.

Consider `O=S(=O)(NCCc1[nH]nc(-c2ccc(F)cc2)c1-c1ccncc1)c1ccccc1C(F)(F)F` [Example B-1086], for which the IC50 is < 100 nM.

As for `CC(NS(=O)(=O)c1ccc(Cl)c(Cl)c1)c1[nH]nc(-c2ccc(F)cc2)c1-c1ccncc1` (stereo not drawn) [Example B-0642], the IC50 is 490 nM.

As to `O=C(Nc1cccc(F)c1)NC(Cc1ccccc1)c1[nH]nc(-c2ccc(F)cc2)c1-c1ccncc1` (stereo not drawn) [Example B-0785], the IC50 came to 23000 nM.

For the compound `CC(NC(=O)c1ccc(F)c(F)c1)c1[nH]nc(-c2ccc(F)cc2)c1-c1ccncc1` (stereo not drawn) [Example B-0678], the IC50 came out at 380 nM.

As for `O=C(O)c1ccccc1S(=O)(=O)NCCc1[nH]nc(-c2ccc(F)cc2)c1-c1ccncc1` [Example B-1065], the concentration for half-maximal inhibition (IC50) is 560 nM.

Consider `CC(=O)OCC(=O)NC(Cc1ccccc1)c1[nH]nc(-c2ccc(F)cc2)c1-c1ccncc1` (stereo not drawn) [Example B-0797], for which the IC50 stood at 1040 nM.

Regarding `CN(C)S(=O)(=O)NCCc1[nH]nc(-c2ccc(F)cc2)c1-c1ccncc1` [Example B-1115], the IC50 was 24 nM.

Regarding `Cc1ccc(F)cc1S(=O)(=O)NC(C)c1[nH]nc(-c2ccc(F)cc2)c1-c1ccncc1` (stereo not drawn) [Example B-0628], the IC50 was 23 nM.

Turning to `CC(NC(=O)NC(Cc1ccccc1)c1[nH]nc(-c2ccc(F)cc2)c1-c1ccncc1)c1ccccc1` (stereo not drawn) [Example B-0736], the IC50 was found to be 26000 nM.

For `CC(Oc1ccccc1)C(=O)NC(C)c1[nH]nc(-c2ccc(F)cc2)c1-c1ccncc1` (stereo not drawn) [Example B-0558], the IC50 is 850 nM.

In the case of `CC(NC(=O)c1ccccc1Br)c1[nH]nc(-c2ccc(F)cc2)c1-c1ccncc1` (stereo not drawn) [Example B-0703], the IC50 was 120 nM.

As to `CC(NS(=O)(=O)c1cccc2cnccc12)c1[nH]nc(-c2ccc(F)cc2)c1-c1ccncc1` (stereo not drawn) [Example B-0667], the IC50 was determined as 830 nM.

As for `CC(C)c1cc(C(C)C)c(C(=O)NC(C)c2[nH]nc(-c3ccc(F)cc3)c2-c2ccncc2)c(C(C)C)c1` (stereo not drawn) [Example B-0674], the IC50 was found to be 2810 nM.

`CC(NS(=O)(=O)c1cccc(C(F)(F)F)c1)c1[nH]nc(-c2ccc(F)cc2)c1-c1ccncc1` (stereo not drawn) [Example B-0648]: the IC50 was < 100 nM.

On to `CC(NS(=O)(=O)c1cc(Cl)cc(Cl)c1)c1[nH]nc(-c2ccc(F)cc2)c1-c1ccncc1` (stereo not drawn) [Example B-0641], for which the IC50 worked out at 580 nM.

On to `CC(NS(=O)(=O)Cc1ccccc1)c1[nH]nc(-c2ccc(F)cc2)c1-c1ccncc1` (stereo not drawn) [Example B-0566], for which the IC50 is < 100 nM.

For `COc1ccc(NC(=O)NC(C)c2[nH]nc(-c3ccc(F)cc3)c2-c2ccncc2)cc1` (stereo not drawn) [Example B-0596], the IC50 turned out to be 20000 nM.

`CCNC(=O)NC(Cc1ccccc1)c1[nH]nc(-c2ccc(F)cc2)c1-c1ccncc1` (stereo not drawn) [Example B-0788]: the IC50 turned out to be 1200 nM.

The same assay, now with this note: in vitro P38-alpha kinase; read-out: P38 alpha kinase IC50.
`O=C(c1cccc(Cl)c1Cl)N1CCC(c2[nH]nc(-c3ccc(F)cc3)c2-c2ccncc2)CC1` [Example B-1416]: the IC50 came to 140 nM.

Consider `Cc1ccc(F)cc1S(=O)(=O)NCCCc1[nH]nc(-c2ccc(F)cc2)c1-c1ccncc1` [Example B-1256], for which the IC50 is 120 nM.

Take `COC(=O)CCCNC(=O)Cn1nc(-c2ccc(F)cc2)c(-c2ccncc2)c1C` [Example B-2295]: the IC50 was determined as 1790 nM.

For the compound `COc1ccc(OC)c(S(=O)(=O)NCCCc2[nH]nc(-c3ccc(F)cc3)c2-c2ccncc2)c1` [Example B-1262], the IC50 was < 100 nM.

For the compound `O=C(c1cccnc1)N1CCC(c2[nH]nc(-c3ccc(F)cc3)c2-c2ccncc2)CC1` [Example B-1387], the IC50 was < 100 nM.

Turning to `O=C(NCCCc1[nH]nc(-c2ccc(F)cc2)c1-c1ccncc1)c1ccccc1Br` [Example B-1355], the IC50 turned out to be 70 nM.

On to `O=C(NCCCc1[nH]nc(-c2ccc(F)cc2)c1-c1ccncc1)c1cc(F)c(F)cc1F` [Example B-1350], for which the IC50 worked out at 19 nM.

Consider `O=C(c1ccc(F)c(F)c1)N1CCC(c2[nH]nc(-c3ccc(F)cc3)c2-c2ccncc2)CC1` [Example B-1414], for which the IC50 was determined as 25 nM.

For the compound `O=C(c1ccno1)N1CCC(c2[nH]nc(-c3ccc(F)cc3)c2-c2ccncc2)CC1` [Example B-1367], the IC50 is < 100 nM.

Consider `O=C(c1cc(F)ccc1F)N1CCC(c2[nH]nc(-c3ccc(F)cc3)c2-c2ccncc2)CC1` [Example B-1402], for which the IC50 came to 120 nM.

Turning to `O=S(=O)(NCCCc1[nH]nc(-c2ccc(F)cc2)c1-c1ccncc1)c1cccc2cccnc12` [Example B-1248], the IC50 is < 100 nM.

As for `O=C(NCCCc1[nH]nc(-c2ccc(F)cc2)c1-c1ccncc1)NC1CCN(Cc2ccccc2)CC1` [Example B-1320], the IC50 worked out at 47 nM.
